Measurements published in patent US11149030B2, “Plants having increased tolerance to herbicides” (BASF AGRO B.V., priority 2016, dated 2021).
Where “and” joins values, the source holds several entries; their conditions need not be identical. Equal values may be shown once.

System: T2 soybean events expressing the indicated Amaranthus PPO2 variant transgene
Assay: Soybean PPO inhibitor tolerance testing, injury score (Table C)
Type: in vivo, Soybean cv Jake
Settings: V2 stage, 3 days after treatment, individual plants
Procedure: Soybean cv Jake is transformed as previously described by Siminszky et al., Phytochem Rev. 5:445-458 (2006). After regeneration, transformants are transplanted to soil in small pots, placed in growth chambers (16 hr day/8 hr night; 25° C. day/23° C. night; 65% relative humidity; 130-150 microE m-2 s-1) and subsequently tested for the presence of the T-DNA via Taqman analysis. After a few weeks, healthy, transgenic positive, single copy events are transplanted to larger pots and allowed to grow in the growth chamber. An optimal shoot for cutting is about 3-4 inches tall, with at least two nodes present. Each cutting is taken from the original transformant (mother plant) and dipped into rooting hormone powder (indole-3-butyric acid, IBA). The cutting is then placed in oasis wedges inside a bio-dome. The mother plant is taken to maturity in the greenhouse and harvested for seed. Wild type cuttings are also taken simultaneously to serve as negative controls. The cuttings are kept in the bio-dome for 5-7 days and then transplanted to 3 inch pots and then acclimated in the growth chamber for two more days. Subsequently, the cuttings are transferred to the greenhouse, acclimated for approximately 4 days prior to spray. […] g ai/ha saflufenacil plus 1% MSO and/or 25-200 g ai/ha 1,5-dimethyl-6-thioxo-3-(2,2,7-trifluoro-3-oxo-4-(prop-2-ynyl)-3,4-dihydro-2H-benzo[b][1,4]oxazin-6-yl)-1,3,5-triazinane-2,4-dione (CAS 1258836-72-4) plus 1% MSO. Other PPO inhibiting herbicides are also tested in a similar fashion for confirming cross resistance: flumioxazin, butafenacil, acifluorfen, lactofen, bifenox, sulfentrazone, methyl 2-[2-chloro-5-[3-chloro-5-(trifluoromethyl)-2-pyridyl]-4-fluoro-phenoxy]-2-methoxy-acetate, ethyl 2-[2-chloro-5-[3-chloro-5-(trifluoromethyl)-2-pyridyl]-4-fluoro-phenoxy]-2-methoxy-acetate, prop-2-ynyl 2-[2-chloro-5-[3-chloro-5-(trifluoromethyl)-2-pyridyl]-4-fluoro-phenoxy]-2-methoxy-acetate and photosynthesis inhibitor diuron as negative control. […]
The following gives a definition of the injury scores measured above: […]

COC(=O)C(OC)Oc1cc(-c2ncc(C(F)(F)F)cc2Cl)c(F)cc1Cl (stereo not shown) [methyl 2-[2-chloro-5-[3-chloro-5-(trifluoromethyl)-2-pyridyl]-4-fluoro-phenoxy]-2-methoxy-acetate]
injury on a 0-9 point scale (soybean T2, transgene L397E_F420M, 25 g ai/ha + 1% v/v MSO): 1
injury on a 0-9 point scale (soybean T2, transgene L397E_F420M, 50 g ai/ha + 1% v/v MSO): 3 and 4
injury on a 0-9 point scale (soybean T2, transgene L397E_F420M, 100 g ai/ha + 1% v/v MSO): 3 and 4 and 9
injury on a 0-9 point scale (soybean T2, transgene L397E_F420M, 200 g ai/ha + 1% v/v MSO): 3 (2×) and 4
injury on a 0-9 point scale (soybean T2, transgene L397Q_F420M, 25 g ai/ha + 1% v/v MSO): 1 and 0 and 9
injury on a 0-9 point scale (soybean T2, transgene L397Q_F420M, 50 g ai/ha + 1% v/v MSO): 9 and 1
injury on a 0-9 point scale (soybean T2, transgene L397Q_F420M, 100 g ai/ha + 1% v/v MSO): 3
injury on a 0-9 point scale (soybean T2, transgene L397Q_F420M, 200 g ai/ha + 1% v/v MSO): 3 and 9 and 4
injury on a 0-9 point scale (soybean T2, transgene R128A_F420I event 1, 25 g ai/ha + 1% v/v MSO): 0
injury on a 0-9 point scale (soybean T2, transgene R128A_F420I event 1, 50 g ai/ha + 1% v/v MSO): 1 and 2 (2×)
injury on a 0-9 point scale (soybean T2, transgene R128A_F420I event 1, 100 g ai/ha + 1% v/v MSO): 2 (2×) and 3
injury on a 0-9 point scale (soybean T2, transgene R128A_F420I event 1, 200 g ai/ha + 1% v/v MSO): 4 (2×) and 3
injury on a 0-9 point scale (soybean T2, transgene R128A_F420I event 2, 25 g ai/ha + 1% v/v MSO): 0 and 9
injury on a 0-9 point scale (soybean T2, transgene R128A_F420I event 2, 50 g ai/ha + 1% v/v MSO): 3 (2×) and 4
injury on a 0-9 point scale (soybean T2, transgene R128A_F420I event 2, 100 g ai/ha + 1% v/v MSO): 1 and 3
injury on a 0-9 point scale (soybean T2, transgene R128A_F420I event 2, 200 g ai/ha + 1% v/v MSO): 5 (2×) and 4
injury on a 0-9 point scale (soybean T2, transgene R128A_F420I event 3, 25 g ai/ha + 1% v/v MSO): 0
injury on a 0-9 point scale (soybean T2, transgene R128A_F420I event 3, 50 g ai/ha + 1% v/v MSO): 1 and 2 and 0
injury on a 0-9 point scale (soybean T2, transgene R128A_F420I event 3, 100 g ai/ha + 1% v/v MSO): 1 and 3
injury on a 0-9 point scale (soybean T2, transgene R128A_F420I event 3, 200 g ai/ha + 1% v/v MSO): 4
injury on a 0-9 point scale (soybean T2, transgene R128A_F420V, 25 g ai/ha + 1% v/v MSO): 2 and 1
injury on a 0-9 point scale (soybean T2, transgene R128A_F420V, 50 g ai/ha + 1% v/v MSO): 4 and 9
injury on a 0-9 point scale (soybean T2, transgene R128A_F420V, 100 g ai/ha + 1% v/v MSO): 4
injury on a 0-9 point scale (soybean T2, transgene R128A_F420V, 200 g ai/ha + 1% v/v MSO): 9 and 4 and 5
injury on a 0-9 point scale (soybean, Non transgenic, 25 g ai/ha + 1% v/v MSO): 9 (2×) and 8
injury on a 0-9 point scale (soybean, Non transgenic, 50 g ai/ha + 1% v/v MSO): 9
injury on a 0-9 point scale (soybean, Non transgenic, 100 g ai/ha + 1% v/v MSO): 9
injury on a 0-9 point scale (soybean, Non transgenic, 200 g ai/ha + 1% v/v MSO): 9 (2×) and 8
